Where two headings read alike, the source gives them in different places. Each block holds one molecule with its values, some of them ahead of it.
How the values were obtained:
[1] = tested on: HepG2 cells
Procedure: (§1) HepG2 cells (purchased from RIKEN BioResource Center, RCB1648, Lot.004) suspended in 0.5 mL DMEM culture medium containing 10% FBS, 20 mM HEPES, 100 units/mL penicillin, and 100 μg/mL streptomycin were seeded at 5×10^4 cells/cm^2 and cultured for 2 days in a hydrogel membrane chamber (ad-MED Vitrigel (registered trademark) manufactured by KANTO KAGAKU) to which a detachable silicone-coated PET film is attached. Thereafter, the film on a bottom surface of the hydrogel membrane chamber was detached, the chamber was mounted in a well of a 12-well plate, and culture was carried out for 1 day in a state where the bottom surface is in contact with air (refer to FIG. 2). The 0.5 mL culture medium was exchanged daily after seeding.
(§2) [1] After removing the culture medium of the hydrogel membrane chamber containing the activated HepG2 cells, 0.5 mL of the culture medium containing 250 vg/mL Fluorescein diacetate (FD) was added, and then culture was carried out at 37° C. for 1 hour in a CO2 incubator (refer to FIG. 4 and Observation A of FIG. 5).
(§3) [2] After removing the culture medium containing the FD remaining in the chamber, washing was performed twice with 0.5 mL of Hank's Balanced Salt Solution (Hank's balanced salt solution: HBSS), 0.5 mL of the culture medium was added to the chamber, and then culture was carried out at 37° C. for 1 hour in a CO2 incubator (refer to Observation B of FIG. 5).
(§4) [1] HepG2 cells were seeded to prepare 12 sets of activated hydrogel membrane chambers. For 6 sets, FD was added to the culture medium and cultured by the same procedure as in [1] to [2] of Example 1.
(§5) [2] Subsequently, after removing the culture medium remaining in the chamber, 0.5 mL of the culture medium was newly added to the chamber. Subsequently, each of three sets was cultured at 37° C. for 1 hour in a CO2 incubator under the following four conditions (refer to FIG. 6).
(§6) i) A set in which HepG2 cells were co-cultured with TFK-1 cells (FD added) ii) A set in which HepG2 cells were co-cultured with TFK-1 cells (FD not added) iii) A set in which HepG2 cells were homo-cultured in a dish containing only a culture medium (FD added) iv) A set in which HepG2 cells were homo-cultured in a dish containing only a culture medium (FD not added)
(§7) [3] The culture medium in the chamber and the dish of i) to iv) was recovered and the fluorescence intensities were measured.
(§8) [2] With respect to the 36 sets of hydrogel membrane chambers in which the cells were seeded and cultured in [1], the culture medium remaining in the chamber was removed, and then 0.5 mL of the culture medium was newly added to the chamber. Subsequently, each of three sets was cultured at 37° C. in a CO2 incubator with culture time of 3 minutes, 30 minutes, and 60 minutes (for each 12 sets) under the following four conditions i) to iv) the same as those of Example 2.
[3] The culture media in the dishes and in the chambers of i) to iv) were recovered 3 minutes, 30 minutes, and 60 minutes after the start of culture, and the fluorescence intensities were measured. Measurements were made three times respectively, and average values are shown in Table 3 (culture time 3 minutes), Table 4 (culture time 30 minutes), and Table 5 (culture time 60 minutes). In FIG. 7, the term “Co-culture” means the set in which HepG2 cells were co-cultured with TFK-1 cells, and the term “Homo-culture” means the set in which HepG2 cells were homo-cultured in the dish containing the culture medium.
as §8, with “to the 48 sets of” for “to the 36 sets of”, “30 minutes, 60 minutes, and 180” for “30 minutes, and 60”, “minutes, and 180 minutes (for” for “minutes, and 60 minutes (for”

[2] = tested on: HepG2 cells co-cultured with TFK-1 cells; assay: Fluorescein excretion into chamber and dish, activated HepG2 cells in hydrogel membrane chamber co-cultured with TFK-1 cells; type: in vitro ADME, human; conditions: Example 4
[3] = tested on: HepG2 cells co-cultured with TFK-1 cells; assay: Fluorescence microscope observation of Fluorescein in cytoplasm and bile canaliculus-like structure, co-culture with TFK-1 cells; type: in vitro ADME, human
Procedure: [3] […] After removing the culture medium in the dish, 0.5 mL of the culture medium for HepG2 cells was added thereto.
(§9) [1] First, HepG2 cells were seeded to prepare 2 sets of activated hydrogel membrane chambers.

[4] = tested on: HepG2 cells; assay: Fluorescence microscope observation of Fluorescein in cytoplasm and bile canaliculus-like structure, homo-culture; type: in vitro ADME
Procedure: as §9

[5] = tested on: HepG2 cells co-cultured with TFK-1 cells; assay: Fluorescein excretion into chamber and dish, activated HepG2 cells in hydrogel membrane chamber co-cultured with TFK-1 cells; type: in vitro ADME, human
Procedure: as §1, §2, §3
[3] Subsequently, after removing the culture medium remaining in the chamber, 0.5 mL of the culture medium was newly added to the chamber. Furthermore, TFK-1 cells (purchased from RIKEN BioResource Center, RCB2537, Lot.002) suspended in 2.0 mL of RPMI 1640 culture medium containing 10% FBS, 100 units/mL penicillin, and 100 μg/mL streptomycin were seeded at 7×10^4 cells/cm^2 in a dish having a diameter of 35 mm and cultured for 3 days, and therefore, monolayered cells were prepared in advance. After removing the culture medium in the dish, 0.5 mL of the culture medium for HepG2 cells was added thereto. The chamber was mounted on the monolayer of TFK-1 cells in the dish having a diameter of 35 mm, and then co-culture was carried out at 37° C. for 1 hour in a CO2 incubator (refer to Observation C of FIG. 5).
[4] The fluorescence intensities of Fluorescein in the culture medium in the chamber and in the dish were measured. In Table 1, FD (−) is a value measured as a background value using a chamber having HepG2 cells cultured without adding FD.
as §4, §5, §6, §7
[2] […]

[6] = tested on: HepG2 cells co-cultured with Normal Human Dermal Fibroblasts (NHDFs); assay: Fluorescein excretion into chamber and dish, activated HepG2 cells co-cultured with NHDFs; type: in vitro ADME; conditions: Example 6; culture time 60 minutes
Procedure: [1] First, HepG2 cells were seeded to prepare 18 sets of activated hydrogel membrane chambers.

Average value of set, in chamber ([1]; human, 3 min, 250 vg/mL): 507 | FD(+)-FD(−) in chamber as percentage of total excreted into chamber and dish ([1]; human, 30 min, 250 vg/mL): (50%) | FD(+)-FD(−) in dish as percentage of total excreted into chamber and dish ([1]; human, 30 min, 250 vg/mL): (50%) | Average value of set, in chamber ([1]; human, 1 h, 250 vg/mL): 1145 | Average value of set, in dish ([1]; human, 1 h, 250 vg/mL): 645 | FD(+)-FD(−) in chamber as percentage of total excreted into chamber and dish ([1]; human, 1 h, 250 vg/mL): (90%) | FD(+)-FD(−) in dish as percentage of total excreted into chamber and dish ([1]; human, 1 h, 250 vg/mL): (10%) | FD(+)-FD(−), in chamber ([1]; human, 1 h, 250 vg/mL): 549 | FD(+)-FD(−), in dish ([1]; human, 1 h, 250 vg/mL): 60 | Average value of set, in chamber ([1]; human, 180 min, 250 vg/mL): 579 | Average value of set, in dish ([1]; human, 180 min, 250 vg/mL): 515 | FD(+)-FD(−) in chamber as percentage of total excreted into chamber and dish ([1]; human, 180 min, 250 vg/mL): (71%) | FD(+)-FD(−) in dish as percentage of total excreted into chamber and dish ([1]; human, 180 min, 250 vg/mL): (29%) | FD(+)-FD(−), in chamber ([1]; human, 180 min, 250 vg/mL): 88 | FD(+)-FD(−), in dish ([1]; human, 180 min, 250 vg/mL): 36
SMILES: CC(=O)Oc1ccc2c(c1)Oc1cc(OC(C)=O)ccc1C21OC(=O)c2ccccc21 [FD, Fluorescein diacetate]

rate of the fluorescence intensities of Fluorescein excreted into the dish (lower side) over time [1]: decreased over time | culture time beyond which total excreted Fluorescein fluorescence becomes almost a plateau state ([1]; human, 250 vg/mL): exceeds 30 minutes | total of the fluorescence intensities of Fluorescein excreted into the chamber and into the dish ([1]; human, 1 h, 250 vg/mL): 609 | total of the fluorescence intensities of excreted Fluorescein, co-culture with TFK-1 cells compared with homo-culture ([2]; at any time of the culture time (3 to 180 minutes)): larger | culture time beyond which total excreted Fluorescein fluorescence becomes almost a plateau state ([2]; co-culture with TFK-1 cells): exceeds 60 minutes | rate of the fluorescence intensities of Fluorescein excreted into the dish (lower side) over time ([2]; co-culture with TFK-1 cells): increased | amount of Fluorescein excreted into the dish (lower side) larger in co-culture with TFK-1 cells than in homo-culture (rate of excretion to the lower side) ([2]; culture time 180 minutes): 36% | Fluorescein accumulated in the bile canaliculus-like structure after co-culturing with TFK-1 cells ([3]; Example 1, Observations B and C of FIG. 5, co-culture 1 hour): decreased | time within which reduction in the amount of Fluorescein accumulated in the bile canaliculus-like structure was confirmed ([3]; Example 5, co-culture with TFK-1 cells): ≤ 1 h | reduction in the green fluorescence of Fluorescein ([3]; Example 5, co-culture, after 1 hour of excretion): significantly noticeable | green fluorescence of Fluorescein ([3]; Example 5, co-culture, after 3 hours of excretion): not possible to confirm | green fluorescence of Fluorescein ([3]; Example 5, co-culture, after 23 hours of excretion): not possible to confirm | time needed to reduce the amount of Fluorescein accumulated in the bile canaliculus-like structure ([4]; Example 5): ≥ 1 days | reduction in the green fluorescence of Fluorescein ([4]; Example 5, after 1 hour of excretion): not noticeable | reduction in the green fluorescence of Fluorescein ([4]; Example 5, after 3 hours of excretion): significantly noticeable | amount of Fluorescein excreted into the dish larger in co-culture with TFK-1 cells than in homo-culture (rate of excretion to the lower side) ([5]; Example 2, 1 hour): 4% | increase of the total amount of excreted Fluorescein, co-culture with TFK-1 cells vs homo-culture ([5]; Example 2, 1 hour): about 26% | total of the fluorescence intensities of Fluorescein excreted into the chamber and into the dish ([5]; Example 2, co-cultured with TFK-1 cells, 1 hour): 770 | rate of the fluorescence intensities of Fluorescein excreted into the dish (lower side) over time ([5]; Example 3, co-culture with TFK-1 cells): increased | total of the fluorescence intensities of excreted Fluorescein, co-culture with TFK-1 cells compared with homo-culture ([5]; Example 3, culture time 3, 30 and 60 minutes): larger | amount of Fluorescein excreted into the dish smaller in co-culture with NHDFs than in co-culture with TFK-1 cells [6]: 54% | total of the fluorescence intensities of Fluorescein excreted into chamber and dish, co-culture with NHDFs compared with homo-culture [6]: almost the same
SMILES: O=C1OC2(c3ccc(O)cc3Oc3cc(O)ccc32)c2ccccc21 [Fluorescein]
green fluorescence of Fluorescein ([4]; Example 5, after 23 hours of excretion): fluorescence in the bile canaliculus-like structure remained

Source: patent publication US20180120298A1, “HEPATOCYTE CULTURE DEVICE CAPABLE OF ENHANCING ACCUMULATION AND EXCRETION OF HEPATIC METABOLITE IN AND INTO BILE CANALICULUS-LIKE STRUCTURE, AND METHOD FOR EVALUATING CANDIDATE COMPOUND SENSITIVE TO EXCRETION INTO BILE OR BLOOD AND HEPATIC METABOLITE OF SAID CANDIDATE COMPOUND USING SAID HEPATOCYTE …” (National Agriculture and Food Reserach Organization, priority 2015, published 2018)
